From patent US6388080B1, “Polymorphic forms of 6-[4-(1-cyclohexyl-1H-tetrazol-5-yl)butoxy]-3,4-dihydro-2(1H)-quinolinone” (priority 2001, dated 2002)

Experiments:
[1] = aqueous solubility of cilostazol polymorphic forms; format: physicochemical; conditions: for solubility relative to Form A: suggested by lower melting point than Form A in DSC thermogram (FIG. 8)
[2] = stability of the polymorphic form; format: physicochemical
[3] = DSC of disturbed sample: solid state phase transformation to Form A; format: physicochemical; conditions: sample disturbed (scratching/stressed), DSC heating from 30° C. to approximately 200° C. at 10° C. per minute; followed by melt of Form A at about 160° C.
Excerpt: Characterization of Form A of cilostazol, Form B of cilostazol, and Form C of cilostazol was further completed using DSC thermograms, shown in FIGS. 3, 4, and 5, respectively, with DSC thermograms for combinations of Form A and Form B; Form B and Form C; and Forms A, B, and C are shown in FIGS. 6, 7, and 8 respectively. DSC data were generated using a Mettler-Toledo DSC 821^e(Columbus, Ohio) with a Julabo FT900 intercooler chiller (Julabo Company; Allentown, Pa.). In general, samples were analyzed in a vented, sealed aluminum pan. Because the endothermic peak may vary depending upon the rate of heating and the calibration and precision of the instrument, with the amount of peak variation dependent upon the heating rate used, all thermograms included herein were run under the same, consistent conditions: heating at 10° C. per minute under a nitrogen purge at 40 mL/minute. The resultant sample of Example 1A was disturbed with scratching, which caused the cilostazol sample to undergo a solid state phase transformation at approximately 119° C. followed by an endotherm of melt at approximately 160° C. (Form A) during heating by DSC from 30° C. to approximately 200° C. at 10° C. per minute. When the sample is stressed and reheated (as detailed in Example 2A), the sample undergoes a solid state phase transformation at approximately 147° C. followed by an endotherm of melt at about 160° C. […]

[4] = bioavailability; format: in vivo; conditions: Form A as prepared by the procedures of the '479 patent

SMILES | solubility relative to Form A [1] | stability of the form [2] | solid state phase transformation temperature [3] | aqueous solubility ([1]; Form A as prepared by the procedures of the '479 patent) | bioavailability [4]
O=C1CCc2cc(OCCCCc3nnnn3C3CCCCC3)ccc2N1 [Form B, 6-[4-(1-cyclohexyl-1H-tetrazol-5-yl)butoxy]-3,4-dihydro-2(1H)-quinolinone] | more soluble than Form A | stable | approximately 119 °C | – | –
O=C1CCc2cc(OCCCCc3nnnn3C3CCCCC3)ccc2N1 [Form C, 6-[4-(1-cyclohexyl-1H-tetrazol-5-yl)butoxy]-3,4-dihydro-2(1H)-quinolinone] | more soluble than Form A | stable | approximately 147 °C | – | –
O=C1CCc2cc(OCCCCc3nnnn3C3CCCCC3)ccc2N1 [Form A, 6-[4-(1-cyclohexyl-1H-tetrazol-5-yl)butoxy]-3,4-dihydro-2(1H)-quinolinone] | – | – | – | low | low
